Consider 5 compounds from US20250073184A1, “CANNABIGEROQUINONE COMPOUNDS, COMPOSITIONS INCLUDING SUCH COMPOUNDS, AND USES OF SUCH COMPOUNDS AND COMPOSITIONS” (Juva Life, Inc., priority 2021, published 2025).

pEC50: −log10 of the molar value. Like-named read-outs stand apart in the source and are kept apart here. A value given as a limit tells only on which side of the number the result lay.

One assay deals with IL10. The assay is described as follows: IL10 secretion assay in human PBMCs (PHA-M, ELISA). To be noted: for pEC50: read-out: Inhibitory Activity EC50, IL10. The format is cell-based. How it is done: Fetal bovine serum (FBS) was obtained from ThermoFisher (Cat #16000044). • Other reagents: 96 well TC plates were obtained from ThermoFisher (Cat #07-2000-90).
Cryopreserved PBMCs were thawed in a water bath and transferred to 50 mL polypropylene tubes. The cells were washed two times with 25 mL of RPMI medium supplemented with 5% of regular FBS and re-suspended at a density of 1.5^^6 cells/mL. The cells were plated into 96 well TC late (100 uL/well). Serially diluted compound was added to the cells in duplicate wells for each concentration. Control wells received DMSO only (0.3% final). The cells were pre-incubated with compound for 2 hr. After pre-incubation, the cells were stimulated by PHA-M (10 ug/mL) for 40 hr. Control samples with and without PHA-M in the absence of compound were assembled in each test plate. […] ELISA readout (optical density at 450 nm) is commensurable with the amount of IL10 produced by the cells. Assay window was determined in each experiment by comparing average OD450 values in stimulated and un-stimulated samples in the absence of compound. ELISA calibration was performed in each detection plate using serially diluted recombinant human IL10 standard, to ensure that OD450 values for all test samples were within linear range of detection.%-Inhibition by compound was calculated using following equation:
where OD450100% is optical density in control samples stimulated with PHA-M without compound, OD4500% is optical density in unstimulated control samples, and OD450compound is optical density in a sample stimulated with PHA-M in the presence of compound. The calculated %-Inh values were plotted against compound concentration. To determine IC50 values, dose-response curves were fitted by a 4-parameter sigmoid inhibition model using XLFit® software (IDBS).
In general terms: ELISA stands for enzyme-linked immunosorbent assay.

For a further assay, the system named is IL-6. The experiment in a line: IL-6 secretion assay in human PBMCs (LPS, ELISA). The format is cell-based. The following applies: read-out: Inhibitory Activity EC50, IL6. How it is done: Fetal bovine serum (FBS) was obtained from ThermoFisher (Cat #16000044). • Other reagents: 96 well TC plates were obtained from ThermoFisher (Cat #07-2000-90). LPS was obtained from Sigma (Cat #L3024).
IL-6 was assessed using a standard ELISA protocol. Cryopreserved PBMCs were thawed in a water bath and transferred to 50 mL polypropylene tubes. The cells were washed two times with 25 mL of RPMI medium supplemented with 5% of heat-inactivated FBS and re-suspended at a density of 4.5^^6 cells/mL. The cells were plated into 96 well TC late (100 uL/well). Serially diluted compound was added to the cells in duplicate wells for each concentration. Control wells received DMSO only (0.3% final). The cells were pre-incubated with compound for 1 hr. After pre-incubation, the cells were stimulated by LPS (100 ng/mL) for 6 hr. Control samples with and without LPS in the absence of compound were assembled in each test plate. IL-6 was detected in media supernatants by using a sandwich anti-IL-6 ELISA kit (BD Biosciences) according to protocol provided by the manufacturer. ELISA readout (optical density at 450 nm) is commensurable with the amount of IL-6 produced by the cells. Assay window was determined in each experiment by comparing average OD450 values in stimulated and un-stimulated samples in the absence of compound. ELISA calibration was performed in each detection plate using serially diluted recombinant human IL-6, to ensure that OD450 values for all test samples were within linear range of detection.%-Inhibition by compound was calculated using following equation.
where OD450100% is optical density in control samples stimulated with LPS without compound, OD4500% is optical density in unstimulated control samples, and OD450compound is optical density in a sample stimulated with LPS in the presence of compound.
The calculated %-Inh values were plotted against compound concentration. To determine IC50 values, dose-response curves were fitted by a 4-parameter sigmoid inhibition model using XLFit® software (IDBS).

The target of another assay is T1, recombinant human LOX-5 (Homo sapiens, UniProt P09917).
T1 construct: expressed in insect cells (Amino Acids 1-674) was obtained from Cayman; purchased Cayman 60402; host or cells: insect cells
T1 sequence (P09917 1-674): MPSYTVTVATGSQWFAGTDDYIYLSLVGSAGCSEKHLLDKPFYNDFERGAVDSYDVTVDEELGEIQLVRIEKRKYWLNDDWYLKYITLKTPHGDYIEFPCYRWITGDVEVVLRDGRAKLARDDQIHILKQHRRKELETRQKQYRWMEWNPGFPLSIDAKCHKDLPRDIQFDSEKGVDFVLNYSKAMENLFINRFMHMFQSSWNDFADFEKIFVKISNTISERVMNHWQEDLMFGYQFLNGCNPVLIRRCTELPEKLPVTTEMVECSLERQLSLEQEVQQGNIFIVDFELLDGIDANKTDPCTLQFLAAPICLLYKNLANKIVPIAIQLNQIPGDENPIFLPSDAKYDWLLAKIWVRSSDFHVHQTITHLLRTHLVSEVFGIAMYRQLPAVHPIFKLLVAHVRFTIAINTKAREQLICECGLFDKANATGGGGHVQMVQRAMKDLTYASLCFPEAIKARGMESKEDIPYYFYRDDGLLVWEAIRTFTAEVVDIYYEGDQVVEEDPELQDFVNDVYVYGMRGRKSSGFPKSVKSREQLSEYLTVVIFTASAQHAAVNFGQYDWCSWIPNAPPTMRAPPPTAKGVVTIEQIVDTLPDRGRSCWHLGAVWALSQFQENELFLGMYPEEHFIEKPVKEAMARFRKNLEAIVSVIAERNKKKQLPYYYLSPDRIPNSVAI
The experiment in a line: Biochemical LOX-5 assay. How it is done:
The LOX-5 assay was performed in assay buffer comprising: 50 mM Tris (pH 7.5), 2 mM EDTA, 2 mM CaCl2), 3 uM AA, 10 uM ATP, 10 uM H2DCFDA, and recombinant enzyme (50 mU per 20 ul reaction, as defined by manufacturer). Serially diluted compounds were prepared in DMSO in Echo qualified 384 well plates. An assay buffer was then prepared without AA and ATP supplemented with 20 uM H2DCFDA. 10 uL of the supplemented buffer was dispensed into control (no enzyme) wells in the black 384 well assay plate. Next, a 2× enzyme solution was prepared, comprising 100 mU LOX-5 enzyme in the supplemented assay buffer. 10 uL of the 2× enzyme solution was then dispensed into test wells in the black 384 well assay plate. Serially diluted compounds were added to the assay plate by acoustic dispensing (Labcyte 550). Control wells received DMSO only.
Next, the 2× substrate was prepared to comprise 6 uM arachidonic acid and 20 uM ATP in the assay buffer. 10 uL of the 2× substrate was then added to all wells in the assay plate. The plate was incubated for 20 min.
[formula] • where RFU100% is fluorescence in control samples without compound, RFU0% is fluorescence in control samples without LOX-5, and RFUcompound fluorescence in a sample with compound.
The calculated %-Inh values were plotted against compound concentration. To determine EC50 values, dose-response curves were fitted by a 4-parameter sigmoid inhibition model using XLFit® software (IDBS).

Where [1] appears, read: recombinant enzyme, read-out: Inhibitory Activity EC50, 5-Lox.
The mark [2] stands for this setting: PBMC, human PBMCs, PHA-M 10 ug/mL 40 hr.
Setting [3] is: PBMC, human PBMCs, LPS 100 ng/mL 6 hr.

Turning to Cannabigerol Quinone [Formula VI], the pEC50 (in general, the negative decadic logarithm of the EC50, by convention in mol/L) with IL10 (human PBMCs, PHA-M 10 ug/mL 40 hr) is 5.96; with IL-6 (human PBMCs, LPS 100 ng/mL 6 hr), 4.75; at recombinant human LOX-5 (setting [1]), 6.57. Also, the “stronger inhibition for 5-Lox compared to Cox-2” value on recombinant human LOX-5 is “over 200 fold”.

For the compound `CCCCCC1=C(NC)C(=O)C(C/C=C(\C)CCC=C(C)C)=C(O)C1=O` [Formula XLI], the “inhibitory activity on IL-10” value in the assay on IL10 is on record as “particular strong inhibitory activity”. Further, the pEC50 with IL10 (setting [2]) is less than 5.00; in the assay with IL-6 (setting [3]), less than 5.00; on recombinant human LOX-5 it was 6.32.

In the case of `CCCCCc1cc(OC(C)=O)c(C/C=C(\C)CCC=C(C)C)c(O)c1OC(C)=O` [Formula XLIII], the “inhibitory activity on IL-10” value with IL10 is “particular strong inhibitory activity”. In addition, the pEC50 with IL10 (setting [2]) was 5.92; in the assay with IL-6 (setting [3]), less than 5.00; on recombinant human LOX-5, 6.47.

As to `CCCCCc1cc(O)c(C/C=C(\C)CCC=C(C)C)c(O)c1O` [Formula XXXIX], in the assay with IL10, the “inhibitory activity on IL-10” value was “particular strong inhibitory activity”. Also, the pEC50 was 5.77 with IL10 (Homo sapiens, PBMC, 40 h); less than 5.00 with IL-6 (Homo sapiens, PBMC, 6 h); 6.70 at recombinant human LOX-5 (setting [1]).

Consider `CCCCCc1cc(OC)c(C/C=C(\C)CCC=C(C)C)c(O)c1OC` [Formula XLII], for which the pEC50 in the assay on IL10 (setting [2]) was less than 5.00; with IL-6 (setting [3]), less than 5.00; on recombinant human LOX-5, 6.68.
